# Measured values taken from ChEMBL document CHEMBL1157088, “Gukulenins A and B, cytotoxic tetraterpenoids from the marine sponge Phorbas gukulensis” (J Nat Prod, 2010).
# Assays:
# Type in all cases: functional, cell-based
# MKN-45 = experiment: Cytotoxicity against human MKN45 cells after 24 hrs by MTT assay; conditions: MKN-45, 24 h
# HCT-116 = experiment: Cytotoxicity against human HCT116 cells after 24 hrs by MTT assay; conditions: HCT-116, 24 h
# FaDu = experiment: Cytotoxicity against human FADU cells after 24 hrs by MTT assay
# SN12C = experiment: Cytotoxicity against human SN12C cells after 24 hrs by MTT assay
SMILES,IC50 (MKN-45),IC50 (HCT-116),IC50 (FaDu),IC50 (SN12C)
CC(=O)O[C@@H](C=O)[C@]1(C)CC[C@H](C(C)C)[C@@H]1c1cc([C@]2(O)Cc3cc(O)c(=O)c(C)c4c3[C@@H](O2)[C@H](O)[C@]2(C)CC[C@H](C(C)C)[C@H]42)cc(O)c(=O)c1C [GUKULENIN A],0.13 µM,0.062 µM,0.057 µM,0.092 µM
CC(=O)O[C@@H](CO)[C@]1(C)CC[C@H](C(C)C)[C@@H]1c1cc([C@]2(O)Cc3cc(O)c(=O)c(C)c4c3[C@@H](O2)[C@H](O)[C@]2(C)CC[C@H](C(C)C)[C@H]42)cc(O)c(=O)c1C [GUKULENIN B],0.72 µM,0.55 µM,0.63 µM,0.61 µM
